Test results reported in article PMC2994747, “Molecular Characterization of c-Abl/c-Src Kinase Inhibitors Targeted against Murine Tumour Progenitor Cells that Express Stem Cell Markers” (PLoS ONE, 2010).

Key:
A2C12 = test: Western blot, semi-quantitative protein expression; type: cell-based, mouse
Description: (§1) For the Western Blot analysis, cells were rinsed and lysed as previously described. An amount of 25 µg protein was used for SDS-PAGE. Antibodies for c-Abl (sc-131), Actin (sc-1616), Cdc2-p34 (sc-8395), EPS15 (sc-1840), FAK (sc-558), c-Fos (sc-52), p38 (sc-7972), p53 (sc-6243) and STAT5 (sc-835x) were obtained from Santa Cruz (Santa Cruz Biotechnology, Heidelberg, Germany), while c-Src (2109) and phospho-Src Y416 (2101) were purchased from Cell Signaling (Cell Signaling Technology, Frankfurt a. M., Germany). The EGFR (06-847), phospho-EGFR Y992 (07-821) and phospho-EGFR Y1045 (04-284) stem from Upstate (Upstate, Schwalbach, Germany) and the hnRNP-K (A300-676A) from Bethyl Labs (Bethyl Laboratories, Montgomery, Texas, USA). Finally p73 (IMG-246) was supplied by Imgenex (Imgenex, Hamburg, Germany). Depending on the primary antibody the secondary antibodies were either horseradish peroxidase-conjugated anti-mouse (AP 160P), anti-rabbit (AP 132P) or anti-sheep (AP 147P) (Chemicon, Schwalbach, Germany).
(§2) Semi-quantitative analysis were carried out with Kodak 1D Image Analysis Software in reference to the vehicle treated control cells (see supplementary table S7).

GammaD12 = test: Western blot, semi-quantitative protein expression; type: cell-based, mouse
Description: as §1, §2

BetaD5 = test: Western blot, semi-quantitative protein expression; type: cell-based, mouse
Description: as §1, §2

GammaA3 = test: Western blot, semi-quantitative protein expression; type: cell-based, mouse
Description: as §1, §2

HepG2 = test: Whole genome expression analysis (Affymetrix microarray); type: cell-based, human; conditions: IC50 concentration, 96 h
Description: (§3) The cells were harvested and RNA was isolated using RNeasy Mini Kit (Qiagen, Hilden, Germany) according to the instructions of the manufacturer. The isolated RNA (250 ng) was processed further using standard protocols as described recently with the exception of the 3′ IVT Express Kit (Affymetrix, High Wycombe, UK) that was utilized according to instructions. Quality control of cRNA was done with the Agilent 2100 Bioanalyzer (Agilent Tech according to manufacturer's protocols. Following fragmentation, cRNA of each sample was hybridized to Affymetrix GeneChip® Mouse Genome 430 2.0 or Human Genome U133 Plus 2.0 and scanned with an Affymetrix 3000 7G scanner.
(§4) The resultant data was normalized by Probe Logarithmic Intensity Error Estimation (PLIER) algorithm. Statistical analysis was carried out with the ArrayTrack software (National Center for Toxicological Research/FDA, Jefferson, AR, USA) using SAM algorithm.

A549 = test: as above; type: cell-based, human; conditions: IC50 concentration, 96 h
Description: as §3, §4

CaCo2 = test: as above; type: cell-based, human; conditions: IC50 concentration, 96 h
Description: as §3, §4

Clc1cccc(Nc2nc(SC3CCCC3)nc3c2cnn3CC(Cl)c2ccccc2)c1 (stereo not drawn) [Si135]
Actin protein expression (A2C12): 88 | EGFR Y992-p protein expression (A2C12): 79 | EGFR Y1045-p protein expression (A2C12): 69 | EGFR protein expression (A2C12): 30 | EPS15 protein expression (A2C12): 83 | FAK protein expression (A2C12): 71 | STAT5 protein expression (A2C12): 95 | c-Abl protein expression (A2C12): 64 | c-Fos protein expression (A2C12): 52 | c-Src protein expression (A2C12): 95 | hnRNP-K protein expression (A2C12): 87 | p38 protein expression (A2C12): 33 | p53 protein expression (A2C12): 58 | p73 protein expression (A2C12): 43 | Actin protein expression (GammaD12): 110 | EGFR Y992-p protein expression (GammaD12): 181 | EGFR Y1045-p protein expression (GammaD12): 132 | EGFR protein expression (GammaD12): 95 | EPS15 protein expression (GammaD12): 149 | FAK protein expression (GammaD12): 117 | STAT5 protein expression (GammaD12): 118 | c-Abl protein expression (GammaD12): 152 | c-Fos protein expression (GammaD12): 103 | c-Src Y416-p protein expression (GammaD12): 140 | c-Src protein expression (GammaD12): 89 | hnRNP-K protein expression (GammaD12): 75 | p38 protein expression (GammaD12): 18 | p53 protein expression (GammaD12): 108 | Actin protein expression (BetaD5): 92 | EGFR Y992-p protein expression (BetaD5): 68 | EGFR Y1045-p protein expression (BetaD5): 148 | EGFR protein expression (BetaD5): 116 | EPS15 protein expression (BetaD5): 759 | FAK protein expression (BetaD5): 114 | STAT5 protein expression (BetaD5): 163 | c-Abl protein expression (BetaD5): 101 | c-Fos protein expression (BetaD5): 98 | c-Src Y416-p protein expression (BetaD5): 20 | c-Src protein expression (BetaD5): 135 | hnRNP-K protein expression (BetaD5): 115 | p38 protein expression (BetaD5): 56 | p53 protein expression (BetaD5): 119 | Actin protein expression (GammaA3): 101 | EGFR Y992-p protein expression (GammaA3): 70 | EGFR Y1045-p protein expression (GammaA3): 31 | EGFR protein expression (GammaA3): 25 | EPS15 protein expression (GammaA3): 102 | FAK protein expression (GammaA3): 104 | STAT5 protein expression (GammaA3): 80 | c-Abl protein expression (GammaA3): 65 | c-Fos protein expression (GammaA3): 112 | c-Src Y416-p protein expression (GammaA3): 216 | c-Src protein expression (GammaA3): 107 | hnRNP-K protein expression (GammaA3): 90 | p38 protein expression (GammaA3): 48 | p53 protein expression (GammaA3): 78 | Significantly differentially regulated genes, downregulated (number) (HepG2; SAM FDR<0.01, FC>2): 0 | Significantly differentially regulated genes, upregulated (number) (HepG2; SAM FDR<0.01, FC>2): 87 | Dusp1 gene expression (HepG2; vs control): 1.56 log2 of fold change | Hnrnpr gene expression (HepG2; vs control): 1.08 log2 of fold change | Jun gene expression (HepG2; vs control): 1.34 log2 of fold change | Pik3ca gene expression (HepG2; vs control): 2.01 log2 of fold change | Ptk2 (FAK) gene expression (HepG2; vs control): 1.20 log2 of fold change | Significantly differentially regulated genes, downregulated (number) (A549; SAM FDR<0.01, FC>2): 17 | Significantly differentially regulated genes, upregulated (number) (A549; SAM FDR<0.01, FC>2): 61 | Cdcp1 gene expression (A549; vs control): 1.23 log2 of fold change | Ceacam6 gene expression (A549; vs control): 1.63 log2 of fold change | Il8 gene expression (A549; vs control): 1.20 log2 of fold change | Lamb3 gene expression (A549; vs control): 1.08 log2 of fold change | Ptgs2 gene expression (A549; vs control): 1.05 log2 of fold change | Vcan gene expression (A549; vs control): -4.42 log2 of fold change | Significantly differentially regulated genes, downregulated (number) (CaCo2; SAM FDR<0.01, FC>2): 55 | Significantly differentially regulated genes, upregulated (number) (CaCo2; SAM FDR<0.01, FC>2): 193 | Birc5 gene expression (CaCo2; vs control): -4.36 log2 of fold change | Cav1 gene expression (CaCo2; vs control): 1.30 log2 of fold change | Cdkn1a gene expression (CaCo2; vs control): 1.00 log2 of fold change | Ceacam1 gene expression (CaCo2; vs control): 1.47 log2 of fold change | Ceacam6 gene expression (CaCo2; vs control): 1.25 log2 of fold change | Cxcl2 gene expression (CaCo2; vs control): 1.16 log2 of fold change | Dusp1 gene expression (CaCo2; vs control): 1.05 log2 of fold change | Flnc gene expression (CaCo2; vs control): 1.43 log2 of fold change | Itga2 gene expression (CaCo2; vs control): 1.02 log2 of fold change | Jun gene expression (CaCo2; vs control): 1.51 log2 of fold change | Lamc2 gene expression (CaCo2; vs control): 1.27 log2 of fold change | Mtss1 gene expression (CaCo2; vs control): -4.64 log2 of fold change | Ptn gene expression (CaCo2; vs control): -4.50 log2 of fold change | Tgfb1i1 gene expression (CaCo2; vs control): 1.67 log2 of fold change | Thbs (thrombospondin 1) gene expression (CaCo2; vs control): -4.36 log2 of fold change | Tnc gene expression (CaCo2; vs control): -6.40 log2 of fold change | Tuba1a gene expression (CaCo2; vs control): 2.27 log2 of fold change
